In PubChem BioAssay AID248 (DTP/NCI, 2004):
Values joined by “and” are separate entries in the source; they are usually repeats but may differ in a detail not shown here. Identical values can stand only once. Inconclusive results and toxic doses are left out. Rule as the data show it: active = T/C of 150% or more; inactive = T/C below 125%.

System: L1210 leukemia ip in BDF1 mice, survival T/C
Assay: NCI In Vivo Anticancer Drug Screen. Data for tumor model L1210 Leukemia (intraperitoneal) in B6D2F1 (BDF1) mice
Conditions: endpoint: mean survival time, higher = longer survival
Procedure, shortened: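 Antitumor effect is assessed in tumor-bearing animals. Survival in the compound arm is compared with a vehicle-dosed control arm and expressed as their quotient.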

[1] = dose: 100.0 mg/kg/injection, schedule: Q01DX001 (ip), vehicle: saline
[2] = dose: 200.0 mg/kg/injection, schedule: Q01DX001 (ip), vehicle: saline
[3] = dose: 400.0 mg/kg/injection, schedule: Q01DX001 (ip), vehicle: saline
[4] = dose: 100.0 mg/kg/injection, schedule: Q01DX009 (ip), vehicle: saline
[5] = dose: 200.0 mg/kg/injection, schedule: Q01DX009 (ip), vehicle: saline
[6] = dose: 100.0 mg/kg/injection, schedule: Q04DX003 (ip), vehicle: Klucel (hydroxypropylcellulose) (HPC)
[7] = dose: 200.0 mg/kg/injection, schedule: Q04DX003 (ip), vehicle: Klucel (hydroxypropylcellulose) (HPC)
[8] = dose: 400.0 mg/kg/injection, schedule: Q04DX003 (ip), vehicle: Klucel (hydroxypropylcellulose) (HPC)
[9] = dose: 100.0 mg/kg/injection, schedule: Q04DX003 (ip), vehicle: saline
[10] = dose: 200.0 mg/kg/injection, schedule: Q04DX003 (ip), vehicle: saline
[11] = dose: 400.0 mg/kg/injection, schedule: Q01DX009 (ip), vehicle: saline
[12] = dose: 400.0 mg/kg/injection, schedule: Q04DX003 (ip), vehicle: saline
[13] = dose: 150.0 mg/kg/injection, schedule: Q01DX001 (ip), vehicle: saline
[14] = dose: 100.0 mg/kg/injection, schedule: Q04DX003 (ip), vehicle: saline with Tween-80
[15] = dose: 200.0 mg/kg/injection, schedule: Q04DX003 (ip), vehicle: saline with Tween-80
[16] = dose: 400.0 mg/kg/injection, schedule: Q04DX003 (ip), vehicle: saline with Tween-80
[17] = dose: 400.0 mg/kg/injection, schedule: Q01DX001 (ip), vehicle: saline with Tween-80

Measured: T/C

CCCCC(=O)c1cc2ccccc2c2ccccc12
inactive: [1] 94 % of control | [2] 88 % of control | [3] 98 % of control

C=CCOC(=O)C(C)O (stereo unspecified)
inactive: dose: 50.0 mg/kg/injection, schedule: Q01DX009 (ip), vehicle: saline 98 % of control | [1] 105 % of control | [4] 98 % of control | [2] 105 % of control | [5] 98 % of control

O=C(N=C1SCCS1)Nc1cccc(Cl)c1
inactive: dose: 100.0 mg/kg/injection, schedule: Q04DX002 (ip), vehicle: Klucel (hydroxypropylcellulose) (HPC) 100 % of control | dose: 200.0 mg/kg/injection, schedule: Q04DX002 (ip), vehicle: Klucel (hydroxypropylcellulose) (HPC) 95 % of control | dose: 400.0 mg/kg/injection, schedule: Q04DX002 (ip), vehicle: Klucel (hydroxypropylcellulose) (HPC) 110 % of control

CC(=O)Nc1ccc(C(=O)C[n+]2ccc3ccccc3c2)cc1
inactive: [6] 97 % of control | [7] 92 % of control | [8] 94 % of control

Cc1cc2nc3c(nc2cc1C)C1CC(Br)CCC1N3 (stereo unspecified)
inactive: [1] 97 % of control | [2] 95 % of control | [3] 91 % of control

CC(NC(=O)C(F)(F)F)C(=O)O (stereo unspecified)
inactive: [4] 92 % of control | [9] 103 % of control | [5] 95 % of control | [10] 93 % of control | [11] 113 % of control | [12] 97 % of control

O=C1C(=O)C2CCC1C2
inactive: dose: 25.0 mg/kg/injection, schedule: Q04DX002 (ip), vehicle: other 100 % of control | dose: 50.0 mg/kg/injection, schedule: Q04DX002 (ip), vehicle: other 98 % of control | dose: 100.0 mg/kg/injection, schedule: Q04DX002 (ip), vehicle: other 98 % of control

ClC1(c2ccccc2)C2CCCCC21 (stereo unspecified)
inactive: dose: 75.0 mg/kg/injection, schedule: Q01DX001 (ip), vehicle: saline 100 % of control | [13] 100 % of control

CC(=O)c1ccccc1OS(=O)(=O)c1ccc([N+](=O)[O-])cc1
inactive: dose: 100.0 mg/kg/injection, schedule: Q01DX009 (ip), vehicle: saline with Tween-80 105 % of control | [6] 105 % of control | dose: 200.0 mg/kg/injection, schedule: Q01DX009 (ip), vehicle: saline with Tween-80 111 % of control | [7] 100 % of control | dose: 400.0 mg/kg/injection, schedule: Q01DX009 (ip), vehicle: saline with Tween-80 114 % of control | [8] 103 % of control

COc1cccc(NC(=S)NCCO)c1
inactive: [6] 103 % of control | [7] 110 % of control | [8] 110 % of control

Cc1c[n+]2c3ccccc3c3ccccc3c2s1
inactive: dose: 5.0 mg/kg/injection, schedule: Q01DX009 (ip), vehicle: Klucel (hydroxypropylcellulose) (HPC) 114 % of control | dose: 10.0 mg/kg/injection, schedule: Q01DX001 (ip), vehicle: saline 105 % of control | dose: 10.0 mg/kg/injection, schedule: Q01DX009 (ip), vehicle: Klucel (hydroxypropylcellulose) (HPC) 118 % of control | dose: 10.0 mg/kg/injection, schedule: Q04DX003 (ip), vehicle: Klucel (hydroxypropylcellulose) (HPC) 94 % of control | dose: 20.0 mg/kg/injection, schedule: Q01DX001 (ip), vehicle: saline 100 % of control | dose: 20.0 mg/kg/injection, schedule: Q01DX009 (ip), vehicle: Klucel (hydroxypropylcellulose) (HPC) 123 % of control | dose: 20.0 mg/kg/injection, schedule: Q04DX003 (ip), vehicle: Klucel (hydroxypropylcellulose) (HPC) 97 % of control | dose: 40.0 mg/kg/injection, schedule: Q01DX001 (ip), vehicle: saline 98 % of control

O=c1[nH]cc(NCc2ccco2)c(=O)[nH]1
inactive: [6] 101 % of control | [7] 88 % of control | [8] 93 % of control

OC1C(O)C(O)C(O)C(O)C1O (stereo unspecified)
inactive: [4] 97 % of control | [14] 104 % of control | [9] 98 % of control | [5] 92 % of control | [15] 98 % of control | [10] 98 % of control | dose: 375.0 mg/kg/injection, schedule: Q01DX001 (ip), vehicle: carboxymethylcellulose (CMC) 100 % of control | [11] 97 % of control | [16] 98 % of control | [12] 107 % of control | dose: 750.0 mg/kg/injection, schedule: Q01DX001 (ip), vehicle: carboxymethylcellulose (CMC) 98 % of control | dose: 1500.0 mg/kg/injection, schedule: Q01DX001 (ip), vehicle: carboxymethylcellulose (CMC) 98 % of control

Cc1cn(C2CCCO2)c(=O)[nH]c1=O (stereo unspecified)
inactive: [1] 106 % of control | [2] 101 % of control | [3] 95 % of control

Nc1nc2nc(-c3ccccc3)nc(N)c2nc1-c1ccc(N(CCO)CCO)cc1
inactive: dose: 45.0 mg/kg/injection, schedule: Q01DX001 (ip), vehicle: saline 102 % of control | dose: 67.0 mg/kg/injection, schedule: Q01DX001 (ip), vehicle: saline 108 % of control | [13] 91 % of control | [2] 95 % of control | [3] 95 % of control

CNCCCC(CO)NS(=O)(=O)c1ccc(C)cc1 (stereo unspecified)
inactive: dose: 100.0 mg/kg/injection, schedule: Q01DX001 (ip), vehicle: water 94 % of control | dose: 100.0 mg/kg/injection, schedule: Q04DX003 (ip), vehicle: water 92 % of control | dose: 200.0 mg/kg/injection, schedule: Q01DX001 (ip), vehicle: water 97 % of control | dose: 200.0 mg/kg/injection, schedule: Q04DX003 (ip), vehicle: water 100 % of control | dose: 400.0 mg/kg/injection, schedule: Q01DX001 (ip), vehicle: water 97 % of control | dose: 400.0 mg/kg/injection, schedule: Q04DX003 (ip), vehicle: water 87 % of control

O=C1C2C3SC(c4nc5ccccc5cc43)C2C(=O)N1c1ccccc1 (stereo unspecified)
inactive: [17] 91 % of control

O=C(O)C(C(=O)O)C1Cc2cccc3cccc1c23 (stereo unspecified)
inactive: dose: 25.0 mg/kg/injection, schedule: Q04DX003 (ip), vehicle: saline with Tween-80 96 % of control | dose: 50.0 mg/kg/injection, schedule: Q04DX003 (ip), vehicle: saline with Tween-80 98 % of control | [14] 100 % of control

C[S+](C)c1ccccc1NCc1ccccc1O
inactive: dose: 100.0 mg/kg/injection, schedule: Q01DX001 (ip), vehicle: saline with Tween-80 92 % of control | dose: 200.0 mg/kg/injection, schedule: Q01DX001 (ip), vehicle: saline with Tween-80 93 % of control | [17] 90 % of control

CCOC(=O)c1c(C)oc(=O)c(Br)c1C
inactive: [9] 97 % of control | [10] 100 % of control | [12] 94 % of control

CNC(CCc1ccccc1)C(=O)O (stereo unspecified)
inactive: dose: 100.0 mg/kg/injection, schedule: Q01DX009 (ip), vehicle: saline sonified 98 % of control | [14] 100 % of control | dose: 200.0 mg/kg/injection, schedule: Q01DX009 (ip), vehicle: saline sonified 101 % of control | [15] 99 % of control | dose: 400.0 mg/kg/injection, schedule: Q01DX009 (ip), vehicle: saline sonified 93 % of control | [16] 99 % of control

Nc1ncnc2c1nnn2C1OC(CO)C(O)C1O (stereo unspecified)
inactive: dose: 42.0 mg/kg/injection, schedule: Q01DX015 (ip), vehicle: saline 104 % of control | dose: 50.0 mg/kg/injection, schedule: Q01DX001 (ip), vehicle: saline 107 % of control | dose: 63.0 mg/kg/injection, schedule: Q01DX015 (ip), vehicle: saline 98 % of control | dose: 72.0 mg/kg/injection, schedule: Q01DX015 (ip), vehicle: saline 117 % of control | dose: 100.0 mg/kg/injection, schedule: Q01DX001 (ip), vehicle: Klucel (hydroxypropylcellulose) (HPC) 97 % of control | [1] 109 % of control and 106 % of control | [6] 95 % of control | dose: 180.0 mg/kg/injection, schedule: Q01DX001 (ip), vehicle: Klucel (hydroxypropylcellulose) (HPC) 120 % of control | dose: 180.0 mg/kg/injection, schedule: Q01DX001 (ip), vehicle: saline 113 % of control | dose: 200.0 mg/kg/injection, schedule: Q01DX001 (ip), vehicle: Klucel (hydroxypropylcellulose) (HPC) 92 % of control | [2] 116 % of control and 109 % of control | [7] 95 % of control | dose: 270.0 mg/kg/injection, schedule: Q01DX001 (ip), vehicle: Klucel (hydroxypropylcellulose) (HPC) 122 % of control | dose: 400.0 mg/kg/injection, schedule: Q01DX001 (ip), vehicle: Klucel (hydroxypropylcellulose) (HPC) 122 % of control and 97 % of control | [3] 106 % of control | [8] 92 % of control
